The source of these data is patent US20240139217A1, “FORMULATIONS OF CANNABINOIDS” (ADD Advanced Drug Deliver Technologies LTD., priority 2021, published 2024).

SMILES strings stand for the structures.

The data set is described as follows: Clinical study of bioavailability and pharmacokinetic properties, multiple oral dose crossover. Format: in vivo, healthy subjects. The following applies: Mean; analyte cannabidiol in plasma; 1,500 mg CBD oral twice daily over 7 days after a light meal; 144-168 h. Here is the method: Bioavailability and pharmacokinetic properties of cannabidiol when administered orally in the form of the above described CBD granules containing 29.7% w/w cannabidiol was assessed in a clinical study.
The study involved a comparison with a reference product, an oily cannabidiol solution (DAC C-052 “Cannabidiol”/NRF 22.10 “Ölige Cannabidiol-Lösung 100 mg/ml” (“Oily cannabidiol solution 100 mg/ml”)) and was set up as an open-label, randomised (order of treatments), balanced, multiple dose trial was performed in a 2-period, 2-sequence-crossover design with direct switch-over.
Eighteen (18) healthy subjects of both sexes were randomised. The inclusion criteria involved a body-mass index (BMI)≥18.5 kg/m^2 and ≤30.0 kg/m^2.
The investigational medicinal products were administered after a light meal as single oral doses of 1500 mg cannabidiol (i.e., 5.051 g granules dispersed in water or 15 ml solution) twice daily (i.e., every 12 h) over 7 consecutive days.
Steady-state characterisation was performed over 2 dosing intervals. […]
Cannabidiol (CBD) and its metabolite 7-hydoxy cannabidiol (7-OH-CBD) in plasma samples were analysed by use of a validated LC-MS/MS; LLOQ for CBD was 5.00 ng/ml and for 7-OH-CBD was 1.000 ng/ml.

As for `C=C(C)[C@@H]1CCC(C)=C[C@H]1c1c(O)cc(CCCCC)cc1O` [cannabidiol, 2-[(1R,6R)-3-methyl-6-(1-methylethenyl)-2-cyclohexen-1-yl]-5-pentyl-1,3-benzenediol], the “PTF %,144-168” value is reported as “about 250%”.
